The target of the test is T1, TNF-α (Homo sapiens, UniProt P01375).
T1 construct: purchased R&D 210-TA-020/CF
Description: TNF-α Induced HEK Blue Cellular Assay (secreted alkaline phosphatase expression, QUANTI-Blue). The test is classed as cell-based. The following applies: HEK Blue TNFα reporter cells, TNF-α 100 μg/ml, 24 hrs at 37° C., inhibition of secreted alkaline phosphatase. An outline of the steps: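 Compound was serially diluted from […] to 0.5 nM final, then incubated with 10,000 HEK Blue TNFα reporter cells per well and […] TNF-α for 24 h at 37° C. SEAP output was read by QUANTI-Blue absorbance at 620 nm. Inhibition was background-corrected against DMSO controls with and without stimulation, and IC50 was fitted with a 4-parameter logistic equation.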

Like-named read-outs stand apart in the source and are kept apart here.

T1 sequence (P01375 77-233 limits assumed): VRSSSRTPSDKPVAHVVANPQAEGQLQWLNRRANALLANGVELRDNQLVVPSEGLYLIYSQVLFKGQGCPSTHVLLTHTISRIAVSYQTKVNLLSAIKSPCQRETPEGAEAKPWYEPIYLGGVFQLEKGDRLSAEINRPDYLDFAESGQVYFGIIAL

`[2H]C([2H])([2H])N1C(=O)c2cccc(OC(F)F)c2[C@H]2C[C@@H]1c1nc3ccc(C#CC4(C)CCN(C(=O)C(C)(C)O)C4)cc3n12` (stereo partly drawn) [Example 192, (7R,14R)-1-(difluoromethoxy)-11-((1-(2-hydroxy-2-methylpropanoyl)-3-methylpyrrolidin-3-yl)ethynyl)-6-(methyl-d3)-6,7-dihydro-7,14-methanobenzo[f]benzo[4,5]imidazo[1,2-a][1,4]diazocin-5(14H)-one]: under “read-out: IC50 value”, the IC50 is 10 to 30 µM. The same measure, in the same setting: the figure for `[2H]C([2H])([2H])N1C(=O)c2cccc(OC(F)F)c2[C@H]2C[C@@H]1c1nc3ccc(C#CC4CN(C(=O)C(C)(C)C#N)C4)cc3n12` [Example 193, 3-(3-(((7R,14R)-1-(difluoromethoxy)-6-(methyl-d3)-5-oxo-5,6,7,14-tetrahydro-7,14-methanobenzo[f]benzo[4,5]imidazo[1,2-a][1,4]diazocin-11-yl)ethynyl)azetidin-1-yl)-2,2-dimethyl-3-oxopropanenitrile] is 0.1 to 1 µM.

For `[2H]C([2H])([2H])N1C(=O)c2cccc(OC(F)F)c2[C@H]2C[C@@H]1c1nc3ccc(C#CC4CN(C(=O)C5CC5(F)F)C4)cc3n12` (stereo partly drawn) [Example 194, (7R,14R)-11-((1-(2,2-difluorocyclopropane-1-carbonyl)azetidin-3-yl)ethynyl)-1-(difluoromethoxy)-6-(methyl-d3)-6,7-dihydro-7,14-methanobenzo[f]benzo[4,5]imidazo[1,2-a][1,4]diazocin-5(14H)-one], the IC50 (read-out: IC50 value) was in the range of 10 to 30 µM. On the same count and under the same terms, the figure for `[2H]C([2H])([2H])N1C(=O)c2cccc(OC(F)F)c2[C@H]2C[C@@H]1c1nc3ccc(C#CC4CN(C(=O)C5(O)CC5)C4)cc3n12` [Example 195, (7R,14R)-1-(difluoromethoxy)-11-((1-(1-hydroxycyclopropane-1-carbonyl)azetidin-3-yl)ethynyl)-6-(methyl-d3)-6,7-dihydro-7,14-methanobenzo[f]benzo[4,5]imidazo[1,2-a][1,4]diazocin-5(14H)-one] is below 0.1 µM; for `[2H]C([2H])([2H])N1C(=O)c2cccc(OC(F)F)c2[C@H]2C[C@@H]1c1nc3ccc(C#CC4CC4(F)F)cc3n12` (stereo partly drawn) [Example 196, (7R,14R)-11-((2,2-difluorocyclopropyl)ethynyl)-1-(difluoromethoxy)-6-(methyl-d3)-6,7-dihydro-7,14-methanobenzo[f]benzo[4,5]imidazo[1,2-a][1,4]diazocin-5(14H)-one] it is 0.1 to 1 µM; for `[2H]C([2H])([2H])N1C(=O)c2cccc(OC(F)F)c2[C@H]2C[C@@H]1c1nc3ccc(C#CC4CN(CC(C)(C)O)C4)cc3n12` [Example 197, (7R,14R)-1-(difluoromethoxy)-11-((1-(2-hydroxy-2-methylpropyl)azetidin-3-yl)ethynyl)-6-(methyl-d3)-6,7-dihydro-7,14-methanobenzo[f]benzo[4,5]imidazo[1,2-a][1,4]diazocin-5(14H)-one] it is 10 to 30 µM. `[2H]C([2H])([2H])N1C(=O)c2cccc(OC(F)F)c2[C@H]2C[C@@H]1c1nc3ccc(C#CC4CN(CC(F)F)C4)cc3n12` [Example 198, (7R,14R)-11-((1-(2,2-difluoroethyl)azetidin-3-yl)ethynyl)-1-(difluoromethoxy)-6-(methyl-d3)-6,7-dihydro-7,14-methanobenzo[f]benzo[4,5]imidazo[1,2-a][1,4]diazocin-5(14H)-one] came in with an IC50 (IC50 value) of 10 to 30 µM.

`[2H]C([2H])([2H])N1C(=O)c2cccc(OC(F)F)c2[C@H]2C[C@@H]1c1nc3ccc(C#CC4CCN(C(=O)C5CC5)C4)cc3n12` (stereo partly drawn) [Example 201, (7R,14R)-11-((1-(cyclopropanecarbonyl)pyrrolidin-3-yl)ethynyl)-1-(difluoromethoxy)-6-(methyl-d3)-6,7-dihydro-7,14-methanobenzo[f]benzo[4,5]imidazo[1,2-a][1,4]diazocin-5(14H)-one]: for the setting “read-out: IC50 value”, the IC50 was in the range of 10 to 30 µM. On to `[2H]C([2H])([2H])N1C(=O)c2cccc(OC(F)F)c2[C@H]2C[C@@H]1c1nc3ccc(C#CC4CCN(C(=O)C(C)(C)O)C4)cc3n12` (stereo partly drawn) [Example 202, (7R,14R)-1-(difluoromethoxy)-11-((1-(2-hydroxy-2-methylpropanoyl)pyrrolidin-3-yl)ethynyl)-6-(methyl-d3)-6,7-dihydro-7,14-methanobenzo[f]benzo[4,5]imidazo[1,2-a][1,4]diazocin-5(14H)-one], for which the half-inhibitory concentration (IC50) (read-out: IC50 value) lay in the range of 0.1 to 1 µM.

On to `[2H]C([2H])([2H])N1C(=O)c2cccc(OC(F)F)c2[C@H]2C[C@@H]1c1nc3ccc(C#CC4CCN(C(=O)C5(O)CC5)C4)cc3n12` (stereo partly drawn) [Example 203, (7R,14R)-1-(difluoromethoxy)-11-((1-(1-hydroxycyclopropane-1-carbonyl)pyrrolidin-3-yl)ethynyl)-6-(methyl-d3)-6,7-dihydro-7,14-methanobenzo[f]benzo[4,5]imidazo[1,2-a][1,4]diazocin-5(14H)-one], for which the 50% inhibitory concentration (IC50) (read-out: IC50 value) is below 0.1 µM. On the same count and under the same terms, the figure for `[2H]C([2H])([2H])N1C(=O)c2cccc(OC(F)F)c2[C@H]2C[C@@H]1c1nc3ccc(C#CC4CCN(C(=O)C(C)(C)C)C4)cc3n12` (stereo partly drawn) [Example 204, (7R,14R)-1-(difluoromethoxy)-6-(methyl-d3)-11-((1-pivaloylpyrrolidin-3-yl)ethynyl)-6,7-dihydro-7,14-methanobenzo[f]benzo[4,5]imidazo[1,2-a][1,4]diazocin-5(14H)-one] is below 0.1 µM; for `[2H]C([2H])([2H])N1C(=O)c2cccc(OC(F)F)c2[C@H]2C[C@@H]1c1nc3ccc(C#CC4(C)CN(C(=O)C5(O)CC5)C4)cc3n12` [Example 205, (7R,14R)-1-(difluoromethoxy)-11-((1-(1-hydroxycyclopropane-1-carbonyl)-3-methylazetidin-3-yl)ethynyl)-6-(methyl-d3)-6,7-dihydro-7,14-methanobenzo[f]benzo[4,5]imidazo[1,2-a][1,4]diazocin-5(14H)-one] it is below 0.1 µM. As for `[2H]C([2H])([2H])N1C(=O)c2cccc(OC(F)F)c2[C@H]2C[C@@H]1c1nc3ccc(C#CC4(C)CN(CC)C4)cc3n12` [Example 206, (7R,14R)-1-(difluoromethoxy)-11-((1-ethyl-3-methylazetidin-3-yl)ethynyl)-6-(methyl-d3)-6,7-dihydro-7,14-methanobenzo[f]benzo[4,5]imidazo[1,2-a][1,4]diazocin-5(14H)-one], where the note is “read-out: IC50 value”, the concentration for half-maximal inhibition (IC50) was below 0.1 µM. Still for that read-out and setting: the figure for `[2H]C([2H])([2H])N1C(=O)c2cccc(OC(F)F)c2[C@H]2C[C@@H]1c1nc3ccc(C#CCCC(C)O)cc3n12` (stereo partly drawn) [Example 207, (7R,14R)-1-(difluoromethoxy)-11-(5-hydroxyhex-1-yn-1-yl)-6-(methyl-d3)-6,7-dihydro-7,14-methanobenzo[f]benzo[4,5]imidazo[1,2-a][1,4]diazocin-5(14H)-one] is below 0.1 µM; for `[2H]C([2H])([2H])N1C(=O)c2cccc(OC(F)F)c2[C@H]2C[C@@H]1c1nc3ccc(C#CC4(C)CN(C(=O)C5CC5(F)F)C4)cc3n12` (stereo partly drawn) [Example 210, (7R,14R)-11-((1-(2,2-difluorocyclopropane-1-carbonyl)-3-methylazetidin-3-yl)ethynyl)-1-(difluoromethoxy)-6-(methyl-d3)-6,7-dihydro-7,14-methanobenzo[f]benzo[4,5]imidazo[1,2-a][1,4]diazocin-5(14H)-one] it is 0.1 to 1 µM; for `[2H]C([2H])([2H])N1C(=O)c2cccc(OC(F)F)c2[C@H]2C[C@@H]1c1nc3ccc(C#CC4(C)CN(C5CC5)C4)cc3n12` [Example 211, (7R,14R)-11-((1-cyclopropyl-3-methylazetidin-3-yl)ethynyl)-1-(difluoromethoxy)-6-(methyl-d3)-6,7-dihydro-7,14-methanobenzo[f]benzo[4,5]imidazo[1,2-a][1,4]diazocin-5(14H)-one] it is below 0.1 µM.

On to `[2H]C([2H])([2H])N1C(=O)c2cccc(OC(F)F)c2[C@H]2C[C@@H]1c1nc3ccc(C#CC4(C)CCOC4)cc3n12` (stereo partly drawn) [Example 212, (7R,14R)-1-(difluoromethoxy)-6-(methyl-d3)-11-((3-methyltetrahydrofuran-3-yl)ethynyl)-6,7-dihydro-7,14-methanobenzo[f]benzo[4,5]imidazo[1,2-a][1,4]diazocin-5(14H)-one], for which, where the note is “read-out: IC50 value”, the IC50 fell in the range of 0.1 to 1 µM. For `[2H]C([2H])([2H])N1C(=O)c2cccc(OC(F)F)c2[C@H]2C[C@@H]1c1nc3ccc(C#CCCNC(=O)C(C)(C)O)cc3n12` [Example 213, N-(4-((7R,14R)-1-(difluoromethoxy)-6-(methyl-d3)-5-oxo-5,6,7,14-tetrahydro-7,14-methanobenzo[f]benzo[4,5]imidazo[1,2-a][1,4]diazocin-11-yl)but-3-yn-1-yl)-2-hydroxy-2-methylpropanamide], the IC50 (read-out: IC50 value) was in the range of 10 to 30 µM. On the same count and under the same terms, the same measure for `[2H]C([2H])([2H])N1C(=O)c2cccc(OC(F)F)c2[C@H]2C[C@@H]1c1nc3ccc(C#CCCNC(=O)C4CC4)cc3n12` [Example 214, N-(4-((7R,14R)-1-(difluoromethoxy)-6-(methyl-d3)-5-oxo-5,6,7,14-tetrahydro-7,14-methanobenzo[f]benzo[4,5]imidazo[1,2-a][1,4]diazocin-11-yl)but-3-yn-1-yl)cyclopropanecarboxamide]: 0.1 to 1 µM. Same read-out and setting: the figure for `[2H]C([2H])([2H])N1C(=O)c2cccc(OC(F)F)c2[C@H]2C[C@@H]1c1nc3ccc(C#CCCNC(=O)C(C)(C)C)cc3n12` [Example 215, N-(4-((7R,14R)-1-(difluoromethoxy)-6-(methyl-d3)-5-oxo-5,6,7,14-tetrahydro-7,14-methanobenzo[f]benzo[4,5]imidazo[1,2-a][1,4]diazocin-11-yl)but-3-yn-1-yl)pivalamide] is 10 to 30 µM; for `[2H]C([2H])([2H])N1C(=O)c2cccc(OC(F)F)c2[C@H]2C[C@@H]1c1nc3ccc(C#CC4CCCN(C5CC5)C4)cc3n12` (stereo partly drawn) [Example 218, (7R,14R)-11-((1-cyclopropylpiperidin-3-yl)ethynyl)-1-(difluoromethoxy)-6-(methyl-d3)-6,7-dihydro-7,14-methanobenzo[f]benzo[4,5]imidazo[1,2-a][1,4]diazocin-5(14H)-one] it is 10 to 30 µM.

By IC50 is commonly meant the midpoint of a concentration-inhibition curve.

For the origin of these results see patent US20260365682A1, “MODULATORS OF TNF-ALPHA ACTIVITY” (Forward Therapeutics, Inc., priority 2022, published 2026).
